Experiments:
Assay type in all cases: in vivo
[1] = system: dairy cows afflicted with digital dermatitis; experiment: Pain at affected area by pressure gauge, with and without hoof trimming (Example 4); conditions: applied after hoof trimming; observed after 2, 4 and 6 days
From the text: (§1) Allyl isothiocyanate (trade name: “Wasaouro Powder”, Mitsubishi-Kagaku Foods Corp.) was applied to the affected areas of dairy cows afflicted with digital dermatitis, and microbial scores and changes in pain at the lesions were observed after 2, 4 and 6 days.
(§2) Comparisons were made under the following conditions A to D in order to confirm differences in effects attributable to the presence or absence of hoof trimming.
(§3) A: Allyl isothiocyanate applied to affected area after hoof trimming
(§4) B: Allyl isothiocyanate applied to affected area without performing hoof trimming
(§5) C: Allyl isothiocyanate applied after hoof trimming and cleaning the affected area with Oxydol disinfectant
(§6) D: Affected area cleaned with Oxydol disinfectant after hoof trimming (without applying allyl isothiocyanate)
Changes in pain were evaluated based on the level of pressure at which pain was felt by tightly squeezing the affected area with a pressure gauge. Larger values indicate lower levels of pain.

Treponema [2] = experiment: Microbial score of affected area with and without hoof trimming (Example 4); conditions: observed after 2, 4 and 6 days
From the text: as §1, §2, §3, §4, §5, §6
Microbial scores of the affected areas were obtained by scoring the number of microorganisms from a stamped specimen of the heel bulb in the manner indicated below.
3: Treponema covered the entire field of view
2: Large number of Treponema confirmed in the field of view
1: Treponema only occasionally confirmed
0: Treponema unable to be confirmed

[3] = system: dairy cows afflicted with digital dermatitis; experiment: Effect of patch on digital dermatitis of dairy cows (Example 1); conditions: patch on affected area, assessed two days later
From the text: 3 g of a powdered composition of allyl isothiocyanate (trade name: “Wasaouro Powder”, Mitsubishi-Kagaku Foods Corp.) were placed on a piece of absorbent cotton and pressed against the affected area of dairy cows afflicted with digital dermatitis followed by wrapping with an elastic bandage to administer the allyl isothiocyanate to the affected area in the form of a patch and assessing the effect two days later. In addition, the effect of respectively administering sodium alginate and slaked lime using the same method was also assessed two days later.

[4] = system: dairy cows afflicted with hairy hoof wart attack; experiment: Effect of patch on hairy hoof wart attack of dairy cows (Example 2); conditions: assessed one week later
From the text: 3 g of a powdered composition of allyl isothiocyanate (trade name: “Wasaouro Powder”, Mitsubishi-Kagaku Foods Corp.) were placed on a piece of absorbent cotton and pressed against the affected area of dairy cows (5) afflicted with hairy hoof wart attack followed by wrapping with an elastic bandage to administer the allyl isothiocyanate to the affected area in the form of a patch and assessing the effect one week later. […] Hairy hoof wart attack is a hoof and leg disease having lesions that are more serious and cover a broader area in comparison with digital dermatitis, and when considering that an effective preventive and/or treatment method has currently yet to be found, this effect of allyl isothiocyanate can be said to be groundbreaking.

Eubacteriaceae = experiment: 16S rRNA clone analysis of digital dermatitis lesion before and after treatment
From the text: (§7) Samples were collected from two cows afflicted with digital dermatitis. First, a digital dermatitis lesion was collected from the affected area by biopsy prior to treatment. After collecting the lesion, a powdered composition containing allyl isothiocyanate (trade name: “Wasaouro Powder”, Mitsubishi-Kagaku Foods Corp.) was applied to the affected area. After confirming improvement of clinical symptoms seven days later, a sample was again collected by biopsy. The stage of digital dermatitis at the time of sampling was assessed macroscopically. In order to investigate the predominant microbial species in the lesion before and after treatment, DNA was extracted from four specimens of digital dermatitis lesion materials of the two cows before and after treatment, low cycle number PCR (25 cycles or less) was carried out using universal primers to 16S rRNA gene, and the amplified gene fragment was cloned in an Escherichia coli vector. 192 clones were randomly harvested for each specimen to determine the base sequence of the amplified 16S rRNA gene. Among these, a homology analysis was performed by a BLAST search using clones from which data was obtained for base sequences in excess of 1450 bp, followed by determination of microbial species.

Acholeplasma vituli = experiment: as above; conditions: Table 3 cow
From the text: as §7

Psychrobacter = experiment: as above; conditions: Table 3 cow
From the text: as §7

Anaerovorax odorimutans = experiment: as above; conditions: Table 3 cow
From the text: as §7

Clostridiaceae = experiment: as above; conditions: Table 3 cow
From the text: as §7

Treponema [5] = experiment: as above
From the text: as §7

[6] = 3 g powder patch, five dairy cows
[7] = Table 2 cow, after treatment (n = 171), seven days
[8] = Table 2 cow, before treatment (n = 181)
[9] = Table 3 cow, after treatment (n = 178), seven days
[10] = Table 3 cow, before treatment (n = 180)
[11] = after treatment (n = 178), seven days

**Q.** With `C=CCN=C=S` [Allyl isothiocyanate, allyl isothiocyanate] as the compound, how does the pain [1] read?
**A.** decrease

**Q.** What about the “number of microorganisms at the lesion” value (Treponema [2]; administered after hoof trimming) of the same compound?
**A.** decrease

**Q.** What about the “number of microorganisms at the lesion” value (Treponema [2]; applied after cleaning the affected area with Oxydol disinfectant) of the same compound?
**A.** decrease further

**Q.** And the “Degree of effect: Effective (number of digits)” value [3]?
**A.** 1 digits

**Q.** What about the “Degree of effect: Ineffective (number of digits)” value [3] of the same compound?
**A.** 0 digits

**Q.** What about the “Degree of effect: Slightly effective (number of digits)” value [3] of the same compound?
**A.** 0 digits

**Q.** What about the “Degree of effect: Very effective (number of digits)” value [3] of the same compound?
**A.** 2 digits

**Q.** And the “percentage of digits for which the degree of the effect was effective or better” value [3]?
**A.** 100%

**Q.** What about the “cows in which the affected area demonstrated improvement” value [4, 6] of the same compound?
**A.** one

**Q.** And the “cows in which the affected area healed” value [4, 6]?
**A.** two

**Q.** And the “cows in which the affected area was unchanged” value [4, 6]?
**A.** one

**Q.** What about the “cows with effects categorized as improved or better” value ([4]; of the five dairy cows) of the same compound?
**A.** four

**Q.** And the “percentage of clones detected: Eubacteriaceae” value (“percentage … Eubacteriaceae” for short) (Eubacteriaceae; [7])?
**A.** 0.6%

**Q.** What about the “percentage … Eubacteriaceae” value (Eubacteriaceae; [8]) of the same compound?
**A.** 5.5%

**Q.** What about the “percentage … Eubacteriaceae” value (Eubacteriaceae; [9]) of the same compound?
**A.** 0.6%

**Q.** And the “percentage … Eubacteriaceae” value (Eubacteriaceae; [10])?
**A.** 10.6%

**Q.** And the “percentage of clones detected: Acholeplasma vituli” value (Acholeplasma vituli; [11])?
**A.** 0%

**Q.** What about the “percentage of clones detected: Acholeplasma vituli” value (Acholeplasma vituli; before treatment (n = 180)) of the same compound?
**A.** 3.9%

**Q.** And the “percentage of clones detected: Psychrobacter” value (Psychrobacter; [11])?
**A.** 0%

**Q.** And the “percentage of clones detected: Psychrobacter” value (Psychrobacter; before treatment (n = 180))?
**A.** 2.2%

**Q.** What about the “percentage of clones detected: Anaerovorax odorimutans” value (Anaerovorax odorimutans; [11]) of the same compound?
**A.** 0%

**Q.** What about the “percentage of clones detected: Anaerovorax odorimutans” value (Anaerovorax odorimutans; before treatment (n = 180)) of the same compound?
**A.** 10.0%

**Q.** What about the “percentage of clones detected: Clostridiaceae” value (Clostridiaceae; [11]) of the same compound?
**A.** 5.6%

**Q.** And the “percentage of clones detected: Clostridiaceae” value (Clostridiaceae; before treatment (n = 180))?
**A.** 26.7%

**Q.** And the “percentage of clones detected: Treponema” value (Treponema [5]; [7])?
**A.** 7.0%

**Q.** What about the “percentage of clones detected: Treponema” value (Treponema [5]; [8]) of the same compound?
**A.** 79.6%

**Q.** What about the “percentage of clones detected: Treponema” value (Treponema [5]; [9]) of the same compound?
**A.** 0%

**Q.** And the “percentage of clones detected: Treponema” value (Treponema [5]; [10])?
**A.** 37.8%

**Q.** `[Ca+2].[OH-].[OH-]` [Slaked lime, slaked lime, reference compound] was tested. Which “Degree of effect: Effective (number of digits)” value [3] did it give?
**A.** 2 digits

**Q.** What about the “Degree of effect: Ineffective (number of digits)” value [3] of the same compound?
**A.** 0 digits

**Q.** And the “Degree of effect: Slightly effective (number of digits)” value [3]?
**A.** 5 digits

**Q.** And the “Degree of effect: Very effective (number of digits)” value [3]?
**A.** 0 digits

**Q.** And the “percentage of digits for which the degree of the effect was effective or better” value [3]?
**A.** 29%
